From ChEMBL document CHEMBL3217752, “Small molecules targeting phosphoinositide 3-kinases” (Medchemcomm, 2012)
Blank lines part the entries; values can stand above or below the molecule they belong to.

Columns and labels:
[1] = target: Serine/threonine-protein kinase mTOR (Homo sapiens, UniProt P42345)
mTORC1 = mTORC1 (Homo sapiens, UniProt P42345); assay type: protein-complex assay
[2] = target: DNA-dependent protein kinase catalytic subunit (Homo sapiens, UniProt P78527)
[3] = target: T1, Phosphatidylinositol 4,5-bisphosphate 3-kinase catalytic subunit beta isoform (Homo sapiens, UniProt P42338)
[4] = target: T2, Phosphatidylinositol 4,5-bisphosphate 3-kinase catalytic subunit alpha isoform (Homo sapiens, UniProt P42336); assay type: cell-based
[5] = target: T1, Phosphatidylinositol 4,5-bisphosphate 3-kinase catalytic subunit beta isoform; assay type: cell-based
[6] = target: T3, Phosphatidylinositol 4,5-bisphosphate 3-kinase catalytic subunit gamma isoform (Homo sapiens, UniProt P48736)
cells = assay type: cell-based; conditions: Homo sapiens
clinical = conditions: human, in vivo
[7] = target: T4, Phosphatidylinositol 4,5-bisphosphate 3-kinase catalytic subunit delta isoform (Homo sapiens, UniProt O00329)
T4 sequence (O00329 whole entry): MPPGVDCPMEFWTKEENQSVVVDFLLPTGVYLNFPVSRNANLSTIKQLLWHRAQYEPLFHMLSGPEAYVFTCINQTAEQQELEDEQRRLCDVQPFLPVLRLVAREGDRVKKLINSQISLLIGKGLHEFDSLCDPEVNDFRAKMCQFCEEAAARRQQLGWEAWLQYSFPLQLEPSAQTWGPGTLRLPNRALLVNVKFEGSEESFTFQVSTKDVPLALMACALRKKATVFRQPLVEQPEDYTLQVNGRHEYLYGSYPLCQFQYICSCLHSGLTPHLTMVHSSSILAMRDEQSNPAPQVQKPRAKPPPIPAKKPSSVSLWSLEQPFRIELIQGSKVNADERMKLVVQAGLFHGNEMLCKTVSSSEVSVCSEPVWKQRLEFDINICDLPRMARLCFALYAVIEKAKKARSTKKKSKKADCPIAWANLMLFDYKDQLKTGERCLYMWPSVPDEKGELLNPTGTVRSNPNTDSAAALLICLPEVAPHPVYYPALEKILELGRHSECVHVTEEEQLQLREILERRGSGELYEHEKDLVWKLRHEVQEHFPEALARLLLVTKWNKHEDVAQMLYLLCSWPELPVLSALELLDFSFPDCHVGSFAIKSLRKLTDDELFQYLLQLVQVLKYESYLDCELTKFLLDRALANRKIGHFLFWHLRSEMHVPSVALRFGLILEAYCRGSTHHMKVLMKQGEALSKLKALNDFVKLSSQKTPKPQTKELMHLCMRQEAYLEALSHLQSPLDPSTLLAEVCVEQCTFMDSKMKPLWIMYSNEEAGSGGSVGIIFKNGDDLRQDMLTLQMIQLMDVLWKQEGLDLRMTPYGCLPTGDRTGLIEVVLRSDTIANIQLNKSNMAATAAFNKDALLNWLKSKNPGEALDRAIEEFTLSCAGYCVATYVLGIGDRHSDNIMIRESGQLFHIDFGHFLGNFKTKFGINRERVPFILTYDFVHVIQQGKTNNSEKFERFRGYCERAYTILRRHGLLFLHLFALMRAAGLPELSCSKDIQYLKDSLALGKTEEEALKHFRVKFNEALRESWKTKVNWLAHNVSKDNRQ

[8] = target: T2, Phosphatidylinositol 4,5-bisphosphate 3-kinase catalytic subunit alpha isoform
[9] = target: T3, Phosphatidylinositol 4,5-bisphosphate 3-kinase catalytic subunit gamma isoform; remark: listed apart in the source

T1 sequence (P42338 whole entry, canonical isoform): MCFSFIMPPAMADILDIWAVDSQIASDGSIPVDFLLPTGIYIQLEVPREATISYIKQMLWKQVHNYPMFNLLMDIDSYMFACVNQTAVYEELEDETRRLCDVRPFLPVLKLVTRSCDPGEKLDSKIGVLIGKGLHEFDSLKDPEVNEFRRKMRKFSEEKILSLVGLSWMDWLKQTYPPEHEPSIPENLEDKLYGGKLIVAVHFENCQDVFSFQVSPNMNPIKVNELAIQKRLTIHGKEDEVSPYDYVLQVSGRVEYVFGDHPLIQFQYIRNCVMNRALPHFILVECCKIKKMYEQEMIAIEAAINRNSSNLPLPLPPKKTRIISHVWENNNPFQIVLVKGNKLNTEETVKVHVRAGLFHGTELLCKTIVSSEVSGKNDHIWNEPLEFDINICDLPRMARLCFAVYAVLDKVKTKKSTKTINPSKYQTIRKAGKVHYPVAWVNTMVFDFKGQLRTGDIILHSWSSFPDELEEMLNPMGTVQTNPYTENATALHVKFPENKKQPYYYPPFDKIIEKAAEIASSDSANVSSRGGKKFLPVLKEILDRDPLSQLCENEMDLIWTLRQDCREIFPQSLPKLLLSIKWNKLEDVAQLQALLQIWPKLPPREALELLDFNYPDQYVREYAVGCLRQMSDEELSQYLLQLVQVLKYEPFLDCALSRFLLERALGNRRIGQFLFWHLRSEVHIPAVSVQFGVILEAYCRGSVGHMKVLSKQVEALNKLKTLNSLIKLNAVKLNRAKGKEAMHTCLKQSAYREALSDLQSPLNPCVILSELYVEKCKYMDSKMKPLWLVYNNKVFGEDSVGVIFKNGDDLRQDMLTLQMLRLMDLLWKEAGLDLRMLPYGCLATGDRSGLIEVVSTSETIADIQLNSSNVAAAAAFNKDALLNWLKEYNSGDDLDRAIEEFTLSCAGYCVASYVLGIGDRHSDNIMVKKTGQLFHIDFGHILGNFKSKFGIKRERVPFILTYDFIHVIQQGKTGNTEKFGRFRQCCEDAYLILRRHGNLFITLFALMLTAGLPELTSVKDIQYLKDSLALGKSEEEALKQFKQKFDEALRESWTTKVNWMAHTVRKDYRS
T2 sequence (P42336 whole entry, canonical isoform): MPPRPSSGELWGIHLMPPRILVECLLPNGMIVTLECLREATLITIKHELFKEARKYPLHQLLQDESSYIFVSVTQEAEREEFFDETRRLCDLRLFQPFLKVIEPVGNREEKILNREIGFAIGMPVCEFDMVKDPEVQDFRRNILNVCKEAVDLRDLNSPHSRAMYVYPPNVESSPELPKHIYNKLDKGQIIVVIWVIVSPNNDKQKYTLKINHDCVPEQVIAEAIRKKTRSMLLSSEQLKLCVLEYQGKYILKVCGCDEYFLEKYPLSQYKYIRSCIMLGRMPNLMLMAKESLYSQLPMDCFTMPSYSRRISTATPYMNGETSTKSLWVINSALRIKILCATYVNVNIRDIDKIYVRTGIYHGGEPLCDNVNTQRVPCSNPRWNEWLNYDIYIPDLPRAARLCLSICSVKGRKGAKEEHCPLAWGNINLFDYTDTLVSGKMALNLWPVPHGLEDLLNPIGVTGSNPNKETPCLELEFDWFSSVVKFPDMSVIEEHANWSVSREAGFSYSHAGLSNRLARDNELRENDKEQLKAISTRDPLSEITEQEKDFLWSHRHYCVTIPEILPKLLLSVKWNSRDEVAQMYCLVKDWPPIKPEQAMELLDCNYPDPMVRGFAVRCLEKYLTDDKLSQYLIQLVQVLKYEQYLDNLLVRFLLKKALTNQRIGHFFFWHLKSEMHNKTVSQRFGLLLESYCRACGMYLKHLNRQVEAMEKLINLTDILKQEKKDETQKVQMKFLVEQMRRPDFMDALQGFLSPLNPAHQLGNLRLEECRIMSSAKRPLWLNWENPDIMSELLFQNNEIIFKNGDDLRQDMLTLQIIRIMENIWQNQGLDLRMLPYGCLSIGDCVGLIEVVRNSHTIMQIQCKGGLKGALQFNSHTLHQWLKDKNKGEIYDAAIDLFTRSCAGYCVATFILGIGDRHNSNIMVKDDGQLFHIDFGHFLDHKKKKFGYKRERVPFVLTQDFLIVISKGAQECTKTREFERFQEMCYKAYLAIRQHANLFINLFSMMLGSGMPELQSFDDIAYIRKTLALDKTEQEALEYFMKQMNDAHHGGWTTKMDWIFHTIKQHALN
T3 sequence (P48736 whole entry, canonical isoform): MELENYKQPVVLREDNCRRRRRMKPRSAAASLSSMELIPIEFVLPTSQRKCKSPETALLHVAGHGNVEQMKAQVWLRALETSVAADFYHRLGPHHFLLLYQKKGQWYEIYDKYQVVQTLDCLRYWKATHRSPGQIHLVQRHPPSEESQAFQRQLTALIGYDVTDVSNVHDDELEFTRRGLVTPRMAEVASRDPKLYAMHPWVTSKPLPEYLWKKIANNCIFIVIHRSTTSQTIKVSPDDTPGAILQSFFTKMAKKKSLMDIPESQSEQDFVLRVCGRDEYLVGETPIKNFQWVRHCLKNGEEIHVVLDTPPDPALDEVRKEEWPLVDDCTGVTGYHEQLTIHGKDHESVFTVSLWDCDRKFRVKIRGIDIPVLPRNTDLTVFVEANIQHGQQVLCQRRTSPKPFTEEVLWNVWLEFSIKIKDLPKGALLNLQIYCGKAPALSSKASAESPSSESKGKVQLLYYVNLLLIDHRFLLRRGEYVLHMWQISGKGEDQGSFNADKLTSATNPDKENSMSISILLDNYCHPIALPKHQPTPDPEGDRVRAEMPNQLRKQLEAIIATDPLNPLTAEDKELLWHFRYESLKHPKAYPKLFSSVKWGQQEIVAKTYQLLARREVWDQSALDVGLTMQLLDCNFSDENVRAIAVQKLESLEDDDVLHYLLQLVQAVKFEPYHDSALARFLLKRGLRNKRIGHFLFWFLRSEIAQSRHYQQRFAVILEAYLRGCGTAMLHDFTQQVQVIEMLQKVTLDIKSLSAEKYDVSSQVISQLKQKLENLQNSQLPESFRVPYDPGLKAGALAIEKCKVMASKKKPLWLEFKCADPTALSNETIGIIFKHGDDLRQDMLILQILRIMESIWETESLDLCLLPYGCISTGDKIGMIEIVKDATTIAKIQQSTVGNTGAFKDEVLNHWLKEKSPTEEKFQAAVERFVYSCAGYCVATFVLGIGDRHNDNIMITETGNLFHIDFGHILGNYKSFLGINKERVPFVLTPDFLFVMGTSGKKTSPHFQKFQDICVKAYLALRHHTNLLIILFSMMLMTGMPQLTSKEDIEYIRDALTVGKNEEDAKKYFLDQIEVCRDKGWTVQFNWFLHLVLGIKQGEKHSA

IC50 [1]: > 10000 nM
SMILES: CC[C@H](Nc1ncnc2[nH]cnc12)c1nc2cccc(F)c2c(=O)n1-c1ccccc1 [IDELALISIB]

IC50 (mTORC1): 190 nM
IC50 [2]: 150 nM
SMILES: COc1cc(Nc2nc3ccccc3nc2NS(=O)(=O)c2ccc(NC(=O)c3ccc(C)c(OC)c3)cc2)cc(OC)c1

IC50 [3]: 2800 nM
SMILES: O=Cc1ccc(N2CCOCC2)cc1O

IC50 [3]: 383 nM
SMILES: Cc1ccc(S(=O)(=O)Nc2nc3ccccc3nc2Nc2ccc3nsnc3c2)cc1

IC50 [4]: 250 nM
IC50 [5]: 500 nM
SMILES: Oc1ccc(/C=C/c2cc(O)cc(O)c2)cc1 [RESVERATROL]

IC50 [6]: > 10 µM
SMILES: CN1CCOc2cc(/C=C3\SC(=O)NC3=O)ccc21

IC50 [3]: 130 nM
SMILES: Cc1cc(Oc2ccccc2C)c2[nH]c(N3CCOCC3)cc(=O)c2c1

IC50 (cells): < 1 nM
SMILES: COc1c(OCCCN2CCOCC2)ccc2c1N=C(NC(=O)c1cnc(N)nc1)N1CCN=C21 [COPANLISIB]

half-life (clinical): 360 min
SMILES: COc1ccc(-c2ccc3ncc4c(c3c2)n(-c2ccc(N3CCNCC3)c(C(F)(F)F)c2)c(=O)n4C)cn1 [BGT-226 FREE BASE]

SMILES: N=C(N)NCCCC(NC(=O)CCC(=O)OC[N+]1(c2cc(=O)c3cccc(-c4ccccc4)c3o2)CCOCC1)C(=O)NCC(=O)NC(CC(=O)O)C(=O)NC(CO)C(=O)[O-] (stereo not drawn)
IC50 [1]: 1060 nM
IC50 [7]: 3.23 µM
IC50 [3]: 736 nM
IC50 [2]: 357 nM
IC50 [8]: 356 nM
IC50 [9]: 1770 nM

IC50 [3]: 110 nM
SMILES: Cc1cc(NCc2ccccc2C)c2nc(N3CCOCC3)cc(=O)n2c1
